Here are results for ten compounds from patent US20250179047A1, “5-[7-(3,4-DIHYDRO-1H-ISOQUINOLINE-2-CARBONYL)-1,2,3,4 TETRAHYDROISOQUINOLIN-6-YL]-1H-PYRROLE-3-CARBOXAMIDE DERIVATIVES, PHARMACEUTICAL COMPOSITIONS CONTAINING THEM AND THEIR USES AS PRO-APOPTOTIC AGENTS” (LES LABORATOIRES SERVIER, priority 2022, published 2025).

Assay type in all cases: cell-based
One test has as its system KMS-12-PE Bcl-2 WT. The test can be described thus: In vitro cytotoxicity CellTiter-Glo 48 h, KMS-12-PE Bcl-2 WT. Particulars: C50 = concentration needed to reach 50% of the cellular viability. In a few lines:
(§1)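 Potency is expressed as C50, the compound concentration at which viability of engineered KMS-12-PE cells (Bcl-2 wild type or G101V) falls to 50%, determined from CellTiter-Glo luminescence after 48 h of treatment over 11 concentrations.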

A further test concerns KMS-12-PE Bcl-2 G101V. As to the kind of experiment: In vitro cytotoxicity CellTiter-Glo 48 h, KMS-12-PE Bcl-2 G101V. Particulars: for Ratio (G101V/WT): C50 KMS-12-PE Bcl-2 G101V over C50 KMS-12-PE Bcl-2 WT; for IC50: 48 h, CellTiter-Glo, C50 = concentration needed to reach 50% of the cellular viability. A digest of the protocol: as §1
For orientation: ATP-based viability assays read luminescence as a measure of living cells.

A further test deals with KMS12PE Bcl2 F104I. As to the kind of experiment: In vitro cytotoxicity CellTiterGlo 72 h, KMS12PE Bcl2 F104I. Particulars: Homo sapiens, KMS-12-PE, read-out: C50 nM, KMS12PE Bcl2 F104I. Here is the method: (§2) KMS-12-PE (ACC 606) were purchased from the Leibniz-Institute DSMZ (Braunschweig, Germany) and were grown at 37° C. in a humidified atmosphere with 5% CO2 in media recommended by the suppliers. Lentiviral particles containing Bcl-2 wild type (also named “Bcl2 WT”), Bcl-2 mutated on G101V (also named “Bcl2 G101V”), Bcl-2 mutated on D103Y (also named “Bcl2 D103Y”), Bcl-2 mutated on D103V (also named “Bcl2 D103V”), Bcl-2 mutated on D103E (also named “Bcl2 D103E”), Bcl-2 mutated on F104I (also named “Bcl2 F104I”), Bcl-2 mutated on F104L (also named “Bcl2 F104L”), Bcl-2 mutated on D111A (also named “Bcl2 D111A”), Bcl-2 mutated on A113G (also named “Bcl2 A113G”), Bcl-2 mutated on R129L (also named “Bcl2 R129L”), Bcl-2 mutated on V156D (also named “Bcl2 V156D”) were cloned into pcLV-CMV-DEST-IRES-TagRFP. Lentiviral particles (1×10^6) were mixed with Polybrene at 8 μg/ml and transduced by spinoculation for 1 h at 32° C. and incubated overnight. After 8 days, TagRFP positive-cells were sorted by FACS. BCL2 expression was monitored by immunoblotting using anti-Flag and anti-BCL2 antibodies. Cells were seeded into 96-wells plates and treated with 1:3.16 serial dilution of compounds (9 different concentrations). Cell viability was assessed using CellTiterGlo reagent following treatment for 72 h. Results were normalized to the viability of cells without compounds (control wells). The C50 values were calculated using nonlinear regression algorithms in XCell software.

For a further test, the system named is KMS12PE Bcl2 R129L. As to the kind of experiment: In vitro cytotoxicity CellTiterGlo 72 h, KMS12PE Bcl2 R129L. The settings on record: Homo sapiens, KMS-12-PE, read-out: C50 nM, KMS12PE Bcl2 R129L. The method, then: as §2
A further test concerns KMS12PE Bcl2 V156D. As to the kind of experiment: In vitro cytotoxicity CellTiterGlo 72 h, KMS12PE Bcl2 V156D. Particulars: Homo sapiens, KMS-12-PE, read-out: C50 nM, KMS12PE Bcl2 V156D. The method, then: as §2

Regarding `Cc1c(N(C(=O)c2cc(-c3cc4c(cc3C(=O)N3Cc5ccccc5C[C@H]3C)CN(C(=O)Cc3ccc(OCCN5CCOCC5)cc3)CC4)n(C)c2C)c2ccc(O)cc2)cc(C#N)n1C` [Example 21, N-(5-cyano-1,2-dimethyl-1H-pyrrol-3-yl)-N-(4-hydroxyphenyl)-1,2-dimethyl-5-{7-[(3R)-3-methyl-1,2,3,4-tetrahydroisoquinoline-2-carbonyl]-2-(2-{4-[2-(morpholin-4-yl)ethoxy]phenyl}acetyl)-1,2,3,4-tetrahydroisoquinolin-6-yl}-1H-pyrrole-3-carboxamide], the IC50 stood at 0.0057 µM in the test with KMS-12-PE Bcl-2 WT (Homo sapiens, KMS-12-PE); 0.023 µM in the test on KMS-12-PE Bcl-2 G101V (Homo sapiens, KMS-12-PE); 0.045 µM with KMS12PE Bcl2 F104I; 0.00151 µM in the test with KMS12PE Bcl2 R129L; 0.00977 µM with KMS12PE Bcl2 V156D. Further, in the test with KMS-12-PE Bcl-2 G101V, the “Ratio (G101V/WT)” value turned out to be 4.02.
`Cc1c(N(C(=O)c2cc(-c3cc4c(cc3C(=O)N3Cc5ccccc5C[C@H]3C)CN(C(=O)Cc3ccc(OCCC5CCOCC5)cc3)CC4)n(C)c2C)c2ccc(O)cc2)cc(C#N)n1C` [Example 27, N-(5-cyano-1,2-dimethyl-1H-pyrrol-3-yl)-N-(4-hydroxyphenyl)-1,2-dimethyl-5-{7-[(3R)-3-methyl-1,2,3,4-tetrahydroisoquinoline-2-carbonyl]-2-(2-{4-[2-(oxan-4-yl)ethoxy]phenyl}acetyl)-1,2,3,4-tetrahydroisoquinolin-6-yl}-1H-pyrrole-3-carboxamide]: the IC50 was 0.0037 µM in the test with KMS-12-PE Bcl-2 WT (Homo sapiens, KMS-12-PE); 0.0143 µM in the test with KMS-12-PE Bcl-2 G101V (Homo sapiens, KMS-12-PE); 0.0291 µM with KMS12PE Bcl2 F104I; 0.00099 µM in the test with KMS12PE Bcl2 R129L; 0.00384 µM in the test on KMS12PE Bcl2 V156D. The “Ratio (G101V/WT)” value in the test with KMS-12-PE Bcl-2 G101V is recorded as 4.23.
`Cc1c(N(C(=O)c2cc(-c3cc4c(cc3C(=O)N3Cc5ccccc5C[C@H]3CN3CCCCC3)CN(C(=O)Cc3ccc(OCCN5CCOCC5)cc3F)CC4)n(C)c2C)c2ccc(O)cc2)cc(C#N)n1C` [Example 43, N-(5-cyano-1,2-dimethylpyrrol-3-yl)-5-[2-(2-{2-fluoro-4-[2-(morpholin-4-yl)ethoxy]phenyl}acetyl)-7-{[(3S)-3-(piperidin-1-ylmethyl)-3,4-dihydro-1H-isoquinolin-2-yl]carbonyl}-3,4-dihydro-1H-isoquinolin-6-yl]-N-(4-hydroxyphenyl)-1,2-dimethylpyrrole-3-carboxamide]: the IC50 in the test with KMS-12-PE Bcl-2 WT was 0.0048 µM; with KMS-12-PE Bcl-2 G101V, 0.0232 µM; in the test on KMS12PE Bcl2 F104I it was 0.0293 µM; in the test on KMS12PE Bcl2 R129L, 0.00099 µM; in the test on KMS12PE Bcl2 V156D, 0.00663 µM. The “Ratio (G101V/WT)” value with KMS-12-PE Bcl-2 G101V stood at 4.82.
Turning to `Cc1c(N(C(=O)c2cc(-c3cc4c(cc3C(=O)N3Cc5ccccc5C[C@H]3C)CN(C(=O)Cc3ccc(N5CCN6CCOC[C@@H]6C5)cc3F)CC4)n(C)c2C)c2ccc(O)cc2)cc(C#N)n1C` [Example 45, 5-[2-(2-{4-[(9aS)-octahydropyrazino[2,1-c][1,4]oxazin-8-yl]-2-fluorophenyl}acetyl)-7-[(3R)-3-methyl-1,2,3,4-tetrahydroisoquinoline-2-carbonyl]-1,2,3,4-tetrahydroisoquinolin-6-yl]-N-(5-cyano-1,2-dimethyl-1H-pyrrol-3-yl)-N-(4-hydroxyphenyl)-1,2-dimethyl-1H-pyrrole-3-carboxamide], the IC50 with KMS-12-PE Bcl-2 WT (Homo sapiens, KMS-12-PE) amounted to 0.005 µM; in the test with KMS-12-PE Bcl-2 G101V (Homo sapiens, KMS-12-PE), 0.0324 µM; in the test on KMS12PE Bcl2 F104I, 0.114 µM; in the test with KMS12PE Bcl2 R129L, 0.00189 µM; with KMS12PE Bcl2 V156D, 0.00096 µM. Moreover, the “Ratio (G101V/WT)” value in the test with KMS-12-PE Bcl-2 G101V was determined as 6.47.
As to `Cc1c(N(C(=O)c2cc(-c3cc4c(cc3C(=O)N3Cc5ccccc5C[C@H]3C)CN(C(=O)Cc3ccc(CCN5CCC(F)(F)CC5)cc3)CC4)n(C)c2C)c2ccc(O)cc2)cc(C#N)n1C` [Example 51, N-(5-cyano-1,2-dimethylpyrrol-3-yl)-5-[2-(2-{4-[2-(4,4-difluoropiperidin-1-yl)ethyl]phenyl}acetyl)-7-{[(3R)-3-methyl-3,4-dihydro-1H-isoquinolin-2-yl]carbonyl}-3,4-dihydro-1H-isoquinolin-6-yl]-N-(4-hydroxyphenyl)-1,2-dimethylpyrrole-3-carboxamide], the IC50 with KMS-12-PE Bcl-2 WT (Homo sapiens, KMS-12-PE) was 0.0068 µM; in the test with KMS-12-PE Bcl-2 G101V (Homo sapiens, KMS-12-PE) it was 0.0362 µM; in the test on KMS12PE Bcl2 F104I it was 0.321 µM; with KMS12PE Bcl2 R129L, 0.00322 µM; with KMS12PE Bcl2 V156D, 0.0319 µM. Also, in the test on KMS-12-PE Bcl-2 G101V, the “Ratio (G101V/WT)” value is on record as 5.07.
On to `COC[C@@H]1Cc2ccccc2CN1C(=O)c1cc2c(cc1-c1cc(C(=O)N(c3ccc(O)cc3)c3cc(C#N)n(C)c3C)c(C)n1C)CCN(C(=O)Cc1ccc(OCCC3CCOCC3)cc1F)C2` [Example 52, N-(5-cyano-1,2-dimethylpyrrol-3-yl)-5-[2-(2-{2-fluoro-4-[2-(oxan-4-yl)ethoxy]phenyl}acetyl)-7-{[(3S)-3-(methoxymethyl)-3,4-dihydro-1H-isoquinolin-2-yl]carbonyl}-3,4-dihydro-1H-isoquinolin-6-yl]-N-(4-hydroxyphenyl)-1,2-dimethylpyrrole-3-carboxamide], for which the IC50 in the test with KMS-12-PE Bcl-2 WT (Homo sapiens, KMS-12-PE) worked out at 0.0034 µM; with KMS-12-PE Bcl-2 G101V (Homo sapiens, KMS-12-PE) it was 0.0139 µM; in the test on KMS12PE Bcl2 F104I, 0.0111 µM; with KMS12PE Bcl2 R129L, 0.00189 µM; with KMS12PE Bcl2 V156D it was 0.0106 µM. Moreover, in the test with KMS-12-PE Bcl-2 G101V, the “Ratio (G101V/WT)” value is reported as 4.08.
As for `Cc1c(N(C(=O)c2cc(-c3cc4c(cc3C(=O)N3Cc5ccccc5C[C@H]3C)CN(C(=O)Cc3ccc(OCCN5CCC(F)CC5)cc3)CC4)n(C)c2C)c2ccc(O)cc2)cc(C#N)n1C` [Example 53, N-(5-cyano-1,2-dimethyl-1H-pyrrol-3-yl)-5-[2-(2-{4-[2-(4-fluoropiperidin-1-yl)ethoxy]phenyl}acetyl)-7-[(3R)-3-methyl-1,2,3,4-tetrahydroisoquinoline-2-carbonyl]-1,2,3,4-tetrahydroisoquinolin-6-yl]-N-(4-hydroxyphenyl)-1,2-dimethyl-1H-pyrrole-3-carboxamide], the IC50 with KMS-12-PE Bcl-2 WT (Homo sapiens, KMS-12-PE) turned out to be 0.0072 µM; with KMS-12-PE Bcl-2 G101V (Homo sapiens, KMS-12-PE) it was 0.0337 µM; in the test on KMS12PE Bcl2 F104I, 0.0727 µM; in the test on KMS12PE Bcl2 R129L, 0.00238 µM; in the test on KMS12PE Bcl2 V156D, 0.0215 µM. Further, the “Ratio (G101V/WT)” value with KMS-12-PE Bcl-2 G101V was found to be 5.12.
For `Cc1c(N(C(=O)c2cc(-c3cc4c(cc3C(=O)N3Cc5ccccc5C[C@H]3C)CN(C(=O)Cc3ccc(OCCN5CCSCC5)cc3)CC4)n(C)c2C)c2ccc(O)cc2)cc(C#N)n1C` [Example 55, N-(5-cyano-1,2-dimethyl-1H-pyrrol-3-yl)-N-(4-hydroxyphenyl)-1,2-dimethyl-5-{7-[(3R)-3-methyl-1,2,3,4-tetrahydroisoquinoline-2-carbonyl]-2-(2-{4-[2-(thiomorpholin-4-yl)ethoxy]phenyl}acetyl)-1,2,3,4-tetrahydroisoquinolin-6-yl}-1H-pyrrole-3-carboxamide], the IC50 with KMS-12-PE Bcl-2 WT (Homo sapiens, KMS-12-PE) amounted to 0.0062 µM; in the test with KMS-12-PE Bcl-2 G101V (Homo sapiens, KMS-12-PE), 0.026 µM; with KMS12PE Bcl2 F104I it was 0.0578 µM; with KMS12PE Bcl2 R129L, 0.00246 µM; in the test with KMS12PE Bcl2 V156D, 0.0149 µM. Moreover, in the test with KMS-12-PE Bcl-2 G101V, the “Ratio (G101V/WT)” value worked out at 4.22.
For `Cc1c(N(C(=O)c2cc(-c3cc4c(cc3C(=O)N3Cc5ccccc5C[C@H]3CN3CCCCC3)CN(C(=O)Cc3ccc(OCCC5CCOCC5)cc3)CC4)n(C)c2C)c2ccc(O)cc2)cc(C#N)n1C` [Example 66, N-(5-cyano-1,2-dimethylpyrrol-3-yl)-N-(4-hydroxyphenyl)-1,2-dimethyl-5-[2-(2-{4-[2-(oxan-4-yl)ethoxy]phenyl}acetyl)-7-{[(3S)-3-(piperidin-1-ylmethyl)-3,4-dihydro-1H-isoquinolin-2-yl]carbonyl}-3,4-dihydro-1H-isoquinolin-6-yl]pyrrole-3-carboxamide], the IC50 came to 0.006 µM in the test on KMS-12-PE Bcl-2 WT (Homo sapiens, KMS-12-PE); 0.033 µM in the test on KMS-12-PE Bcl-2 G101V (Homo sapiens, KMS-12-PE); 0.0652 µM with KMS12PE Bcl2 F104I; 0.00132 µM with KMS12PE Bcl2 R129L; 0.00765 µM in the test with KMS12PE Bcl2 V156D. Moreover, the “Ratio (G101V/WT)” value in the test with KMS-12-PE Bcl-2 G101V was determined as 5.46.
Consider `Cc1c(C(=O)N(c2ccc(O)cc2)c2cc(C#N)n(C(F)F)c2C)cc(-c2cc3c(cc2C(=O)N2Cc4ccccc4C[C@H]2CN2CCCCC2)CN(C(=O)Cc2ccc(OCCN4CCOCC4)cc2)CC3)n1C` [Example 77], for which the IC50 amounted to 0.0084 µM in the test on KMS-12-PE Bcl-2 WT (Homo sapiens, KMS-12-PE); 0.0487 µM in the test with KMS-12-PE Bcl-2 G101V (Homo sapiens, KMS-12-PE); 0.156 µM in the test on KMS12PE Bcl2 F104I; 0.00281 µM in the test on KMS12PE Bcl2 R129L; 0.0191 µM in the test on KMS12PE Bcl2 V156D. Also, the “Ratio (G101V/WT)” value in the test on KMS-12-PE Bcl-2 G101V came to 5.1.
